Values of other authors as cited in patent US9345733B1, “Supplement composition for supporting telomere maintenance and protection and method of use” (CELLHEALTH TECHNOLOGIES LTD., priority 2011, dated 2016).
Read-outs that look alike come from different tables or passages of the source.

Tests used:
[1] = tested on: IL-23p19, IFN-y, TNF-a, IL-6, MCP-1; conditions: ileum of treated animals
[2] = tested on: human peripheral blood mononuclear cells; conditions: stimulated human peripheral blood mononuclear cells in vitro
[3] = molecular target: TNF-a (Homo sapiens, UniProt P01375)
Sequence of TNF-a (Homo sapiens, UniProt P01375) (P01375 77-233 limits assumed, species assumed): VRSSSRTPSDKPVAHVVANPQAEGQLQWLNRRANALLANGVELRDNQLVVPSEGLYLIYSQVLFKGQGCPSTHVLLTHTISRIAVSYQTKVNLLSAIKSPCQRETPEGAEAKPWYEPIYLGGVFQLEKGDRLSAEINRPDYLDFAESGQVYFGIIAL

[4] = tested on: chronic colonic inflammation; conditions: mice, dietary supplementation; reductions of TNF-a and IL-1β, increase of IL-10
[5] = tested on: endothelial progenitor cells
[6] = tested on: human arterial smooth muscle cells (HASMCs)
[7] = tested on: vascular smooth muscle cells; conditions: stimulated by tumor necrosis factor-alpha
[8] = tested on: endothelial nitric oxide synthase; conditions: HUVEC, at nanomolar concentrations
[9] = tested on: endothelial nitric oxide synthase; conditions: human aortic endothelial cells
[10] = tested on: NF-κB and TNF-a; conditions: peripheral blood mononuclear cells of asthma patients, in-vitro
[11] = tested on: endothelial progenitor cells; conditions: in culture
[12] = tested on: alveolar macrophages; conditions: alveolar macrophages in idiopathic pulmonary fibrosis in vitro
[13] = tested on: TNF-a; conditions: hypertensive rats
[14] = tested on: adult rat cardiomyocytes
[15] = tested on: diseased endothelial cells; conditions: chronic exposure; via activation of hTERT and transient telomere stabilization

For Oc1ccc(C=Cc2cc(O)cc(O)c2)cc1 [resveratrol, Resveratrol], the “pro-inflammatory cytokine expression (IL-23p19, IFN-y, TNF-a, IL-6, MCP-1)” value [1] is given as “significantly lower”, the homocysteine formation [2] is given as “suppresses” and the “TNF-a induced changes of adipokines” value [3] is given as “inhibits”. The chronic colonic inflammation [4] was “attenuates”, the “onset of endothelial progenitor cells senescence” value [5] was “delayed the onset” and the telomerase ([5]; through the PI3K-Akt signalling pathway) was “activation of telomerase”.

For CC(C)=CCC[C@](C)(O[C@@H]1O[C@H](CO)[C@@H](O)[C@H](O)[C@H]1O)[C@H]1CC[C@]2(C)[C@@H]1[C@H](O)C[C@@H]1[C@@]3(C)CC[C@H](O)C(C)(C)[C@@H]3[C@@H](O[C@@H]3O[C@H](CO)[C@@H](O)[C@H](O)[C@H]3O)C[C@]12C [ginsenoside Rg1], the “TNF-a-induced HASMCs proliferation” value [6] is given as “inhibits”, the “proliferation of vascular smooth muscle cells” value [7] is given as “inhibits” and the “endothelial nitric oxide synthase phosphorylation via Akt” value [8] is given as “induces”.

In the case of CC(C)=CCC[C@](C)(O[C@@H]1O[C@H](CO[C@@H]2O[C@H](CO)[C@@H](O)[C@H](O)[C@H]2O)[C@@H](O)[C@H](O)[C@H]1O)[C@H]1CC[C@]2(C)[C@@H]1[C@H](O)C[C@@H]1[C@@]3(C)CC[C@H](O[C@@H]4O[C@H](CO)[C@@H](O)[C@H](O)[C@H]4O[C@@H]4O[C@H](CO)[C@@H](O)[C@H](O)[C@H]4O)C(C)(C)[C@@H]3CC[C@]12C [ginsenoside Rb1], the “endothelial nitric oxide synthase-Ser1177 phosphorylation and nitric oxide production” value [9] is given as “acutely induces”.

For O=c1c(-c2ccc(O)cc2)coc2c([C@@H]3O[C@H](CO)[C@@H](O)[C@H](O)[C@H]3O)c(O)ccc12 [puerarin, Puerarin], the “pathway of NF-κB and TNF-a” value [10] is given as “could inhibit”, the “onset of endothelial progenitor cells senescence” value [11] is given as “dose dependently prevents” and the “proliferation of endothelial progenitor cells” value [11] is given as “increases”.

In the case of CC(=O)N[C@@H](CS)C(=O)O [N-acetylcysteine], the “TNF-a, sTNFR, and TGF-beta1 release” value [12] is listed as “inhibits”, the “progression of cardiac injury” value [13] is listed as “hinders” and the “serum TNF-a level” value [13] is listed as “normalizes”. The “deleterious effect of TNF-a on calcium transients and contraction” value [14] was “prevents” and the “senescence of diseased endothelial cells” value [15] was “can delay senescence”.
